# Test results published in PubChem BioAssay AID743267 (Broad Institute, 2014).
# Several values for one entry are separate records, joined by “and”; a condition that tells them apart may be missing. Identical values can stand only once.
# Tested on: human bronchial epithelial cells, CFTR corrector, plate reader
# Test: rescue of ΔF508 CFTR function, airway epithelium – human bronchial epithelial cells, plate reader, cherry-pick, two tests, dose response (AID 743267)
# Conditions: measured here: test 1 replicate run
row,Compound,AC50 [µM]
1,COc1ccc(S(=O)(=O)Nc2ccc3c(c2)C(=O)N([C@@H](C)CO)C[C@@H](C)[C@H](CN(C)Cc2ccc(Oc4ccccc4)cc2)O3)cc1,0.13
2,N#C[C@@H]1[C@H](c2ccc(-c3cccc(F)c3)cc2)[C@H](CO)N1C(=O)NC1CCCC1,> 50
3,COc1ccc(S(=O)(=O)Nc2ccc3c(c2)C(=O)N([C@H](C)CO)C[C@@H](C)[C@@H](CN(C)Cc2ccc(C(F)(F)F)cc2)O3)cc1,> 50
4,COc1ccc(-c2ccc3c(c2)[C@H]2[C@H](CCN2S(=O)(=O)c2ccc(OC)cc2)[C@@H](CO)N3)cc1,7.37
5,CO[C@@H](CN(C)S(=O)(=O)c1ccc(C)cc1)[C@H](C)CN([C@@H](C)CO)S(=O)(=O)c1cccc(Cl)c1,5.49
6,O=C(C1CC1)N1CC(=O)N2[C@H](CO)[C@@H](c3ccc(-c4ccccc4F)cc3)[C@@H]2C1,8.99
7,C[C@H]1CN([C@@H](C)CO)S(=O)(=O)c2ccc(-c3ccc(C#N)cc3)cc2O[C@@H]1CN(C)Cc1ccccn1,3.39
8,Cc1ccc(-c2ccc3c(c2)O[C@H](CN(C)Cc2ccccn2)[C@@H](C)CN([C@@H](C)CO)S3(=O)=O)cc1,18
9,C[C@@H]1CN([C@@H](C)CO)C(=O)Cc2cc(NC(=O)Nc3cccc4ccccc34)ccc2O[C@@H]1CN(C)Cc1ccc(Cl)c(Cl)c1,2.12
10,CN1C(=O)c2cc(NC(=O)c3ccc(Cl)cc3)ccc2OC[C@@H]2O[C@H](CC(=O)NCc3cccc(F)c3)CC[C@H]21,4.62

# Same assay, conditions: measured here: test 2 replicate run
row,Compound,AC50
1,CCN(c1cccc(C)c1)S(=O)(=O)c1ccc(-c2cc(C)no2)s1,5.94 µM
2,CC(=O)Nc1ccc(-c2csc(NC(=O)CN3C(=O)NC4(CCCC4)C3=O)n2)cc1,> 50 µM
3,COc1cc(NC(=O)COC(=O)c2n[nH]c3ccccc23)c(C)cc1[N+](=O)[O-],36.6 µM
4,Cc1ccc(S(=O)(=O)N(Cc2cc3ccccc3[nH]c2=O)c2cccc(C)c2)cc1,8.17 µM
5,Cc1ccc2cc(CN(CC3CCCO3)C(=S)Nc3ccccc3)c(=O)[nH]c2c1C (stereo not given),3.16 µM
6,CCC(=O)NC(c1ccc(C)cc1)c1ccc2cccnc2c1O (stereo not given),> 50 µM
7,CCc1ccccc1N(C)S(=O)(=O)c1ccc(-c2cc(C)no2)s1,6.87 µM
8,COc1cccc(N2CCN(C(=O)c3ccc(CS(=O)c4ccc(C)cc4)o3)CC2)c1 (stereo not given),0.539 µM
9,NS(=O)(=O)c1ccc(Cl)c(S(N)(=O)=O)c1,1.16 µM
10,COc1cccc2c1C(=O)C=C(C)C2=O,15.2 µM
11,COc1cc(/C=C2/SC(=Nc3ccc(O)cc3)NC2=O)cc(OC)c1O,8.92 µM
12,CCN1CCN(c2cc(C)c3cc(NC(=O)c4ccc(OC)c(OC)c4)ccc3n2)CC1,1.61 µM
13,O=C(O)CCCCCCCCc1cn(Cc2ccc(C(=O)c3ccccc3)cc2)nn1,2.17 µM
14,COc1ccc([N+](=O)[O-])cc1Nc1c2ccccc2nc2ccccc12,2.62 µM
15,COc1ccc(C)cc1NC(=O)CNC(c1ccccc1)c1ccc(C)cc1 (stereo not given),2.03 µM
16,Cc1nn2cc(-c3cccc(Cl)c3)cnc2c1Br,3.81 µM
17,COc1cc(-c2cnc3c(NC=O)cc(-c4cccc(C(F)(F)F)c4)cn23)cc(OC)c1OC,7.05 µM
18,COc1ccc(C2CN=NC23CCc2ccccc2C3=O)cc1 (stereo not given),38.9 µM
19,COc1ccc(CCNc2c3ccccc3nc3ccccc23)cc1OC,3.9 µM
20,COc1ccc(-c2cc(=O)c3c(O)cc(O)cc3o2)cc1,> 50 µM
21,CC(C)(C)c1cc(C(=O)NN)n(Cc2ccc(Cl)cc2Cl)n1,> 50 µM
22,c1ccc2c(NCCCN3CCOCC3)c3ccccc3nc2c1,3.51 µM
23,CCOC(=O)c1ccc(-c2c(-c3cc(OC)c(OC)c(OC)c3)noc2C)cc1F,1.2 µM
24,CC(=O)Nc1ccc(S(=O)(=O)Nc2cccc(-c3nc4cc(C)ccc4o3)c2)cc1,8.92 µM

row,Compound,AC50
1,Nc1ccn([C@@H]2O[C@H](CO)[C@@H](O)[C@@H]2O)c(=O)n1,0.541 µM
2,CCOc1ccc(C)cc1S(=O)(=O)n1cnc2ccccc21,8.08 µM
3,Cc1cccc(N2CCN(S(=O)(=O)c3cc(-c4cc(C)no4)ccc3C)CC2C)c1 (stereo not given),2.57 µM
4,COc1ccc(S(=O)(=O)Nc2cccc3ccc(O)cc23)cc1,6.82 µM
5,COC(=O)c1ccccc1-c1c2ccc(=N)cc-2oc2cc(N)ccc12,0.181 µM
6,Cc1ccc(CNC(=O)c2ccc3c(=O)c(O)c(-c4ccc(C)cc4)[nH]c3c2)cc1,4.24 µM
7,COc1ccc(-c2ccc3oc(-c4ccc(OC)cc4)c(C#CCO)c3c2)cc1,> 50 µM
8,CC(=O)OCCn1c2nc(=O)[nH]c(=O)c-2nc2cc(C)c(C)cc21,15.3 µM
9,COc1ccc(COc2cc(-c3cccc(OC)c3)nc3ccc(NC(=O)c4ccc(OC)cc4)cc23)cc1,1.89 µM
10,CCc1ccc(-c2nc(C(N)=O)c3[nH]c(=O)n(-c4ccccc4OC)c3n2)cc1,1.33 µM
11,COc1nc(N)nc(NC(=O)c2cccs2)c1N=O,16 µM
12,Cc1ccc(C2(C)NC(=O)N(CC(=O)Nc3nc(-c4ccccn4)cs3)C2=O)cc1 (stereo not given),4.23 µM
13,COc1ccc(NC(=O)c2nc(C)c(C3(C)CC(c4cccnc4)=NO3)s2)cc1 (stereo not given),2.75 µM
14,CC(=O)Nc1cccc(-c2ccnc3c2CC(C)(C(=O)NCc2cccs2)O3)c1 (stereo not given),3.3 µM
15,CCOC1=C/C(=C/c2c(N)n3nc(S(=O)(=O)CC)sc3nc2=O)C=CC1=O,24.9 µM
16,c1ccc(CCN(Cc2ccccc2)Cc2nc(C3CC3)no2)cc1,24.9 µM
17,Cc1occc1C(=O)N/N=C/c1c(O)ccc2ccccc12,1.84 µM
18,Cc1cc2c(cc1S(=O)(=O)Nc1ccc(F)cc1)n(C)c(=O)c(=O)n2C,43.2 µM
19,Cc1ccc(C2NC(=O)c3ccccc3N2)c(C)c1 (stereo not given),5.08 µM
20,N=c1sccn1CC(=O)Nc1ccc(S(N)(=O)=O)cc1,14.9 µM
21,O=C(NC(=S)Nc1ccc(-c2ccccc2)cc1)c1ccccc1,> 50 µM
22,CCCn1c(CN2CCN(C(=O)OCC)CC2)nc2cc(NC(=O)CC)ccc21,4.34 µM
23,O=S1(=O)CCN(C(CO)c2ccccc2)CC1 (stereo not given),43.3 µM
24,CCOC(=O)c1c(C)[nH]c(C(=O)N/N=C\c2ccccc2O)c1C,3.36 µM

row,Compound,AC50
1,O=S(=O)(Nc1ccc(F)cc1Cl)c1ccc(-c2cnc(C3CC3)o2)cc1,2.23 µM
2,CC(C)(C)c1ccc(OCC(=O)Nc2ccc3c4c(cccc24)C(=O)NC3=O)cc1,18.4 µM
3,C[n+]1c2cc(N)ccc2cc2ccc(N)cc21,3.52 µM and 2.96 µM
4,COCOc1cccc(CN2CCC2(C)C(=O)Nc2ccc(C)c(O)c2)c1 (stereo not given),> 50 µM
5,CCN1/C(=C/c2ccc3cc(C)cc(C)c3[n+]2CC)Sc2cc(C)ccc21,12.4 µM
6,Cc1cccc(NS(=O)(=O)c2ccc(-c3cnc(C4CC4)o3)cc2)c1,1.59 µM
7,O=C(NN=C1CCCC1)c1[nH]c2ccc(Cl)cc2c1-c1ccccc1,6.72 µM
8,COc1ccc(OC)c(Nc2cc(C)nc3ccc(C)cc23)c1,10.7 µM
9,O=c1cc(-c2ccc(O)c(O)c2)oc2cc(O)cc(O)c12,29.3 µM
10,O=c1[nH]c(CN2CCN(c3ccc(O)cc3)CC2)nc2scc(-c3ccc(Cl)cc3)c12,6.45 µM
11,COc1ccc2c(c1)C(O)C(CO)C(C(=O)O)C2 (stereo not given),9.28 µM
12,N#CC(C#N)=C1C=C2C=C(N3CCOCC3)CCC2CC1 (stereo not given),28.2 µM
13,CC1(C(=O)NCc2ccco2)Cc2c(-c3ccc4c(c3)OCO4)ccnc2O1 (stereo not given),1.88 µM
14,COc1ccc(Cl)cc1NC(=O)CN(C)CC(=O)Nc1cc(OC)c(OC)c(OC)c1,8.47 µM
15,COc1cccc(N=Nc2ccc3cccnc3c2O)c1,> 50 µM
16,O=C1c2cccc3c([N+](=O)[O-])ccc(c23)C(=O)N1Cc1cccnc1,10.2 µM
17,Cn1c(=O)c(NC2CCCCC2)c2c3c(cccc31)C(=O)c1ccccc1-2,8.48 µM
18,Cc1ccc2c(CN3CCN(S(=O)(=O)c4ccc(Cl)cc4)CC3)cc(=O)oc2c1C,11.6 µM
19,COc1ccc(-c2ccnc(-c3ccc(O)cc3)n2)cc1,1.43 µM
20,CCOC(=O)N1CCN(S(=O)(=O)c2ccc3c(c2)C(C)C(=O)N3)CC1 (stereo not given),> 50 µM
21,COCCNC(=O)NC12CC3(C)CC(C)(CC(C)(C3)C1)C2,> 50 µM
22,CCCCC(=NCCc1c(C)[nH]c2ccccc12)C1=C(O)CC(c2ccccc2)CC1=O (stereo not given),3.92 µM
23,COc1ccc(S(=O)(=O)N2CCN(CCOc3ccccc3Cl)CC2)cc1OC,38.7 µM
24,COc1ccccc1NS(=O)(=O)c1cc(N=N/C(C(=O)Nc2ccc(Cl)cc2)=C(/C)O)ccc1C,36.6 µM

row,Compound,AC50
1,Cc1cc(/C=N/n2c(COc3ccccc3C)nc3ccccc3c2=O)c(O)c([N+](=O)[O-])c1,5.53 µM
2,COc1cc2c(cc1OC)C(c1cccs1)N(C(=O)c1cccnc1)CC2 (stereo not given),4.9 µM
3,COc1ccc(O)c(/C=N/NC(=O)c2ccc(N3CCCC3=O)cc2)c1,8.14 µM
4,COc1ccc(C(=O)c2ccc(N(C)C)cc2)c(OC)c1,3.82 µM
5,NS(=O)(=O)c1cc(Cl)c(Cl)c(S(N)(=O)=O)c1,0.0468 µM
6,CCOc1ccc(C(=O)COC(=O)Cc2n[nH]c(=O)c3ccccc23)cc1,2.53 µM
7,Brc1ccc2c(c1)C(C1=NCCN1)c1ccccc1CS2 (stereo not given),16 µM
8,COc1cccc(C2c3cc4c(cc3OC(NNC(N)=O)C2C)OCO4)c1O (stereo not given),3.18 µM
9,COc1ccc(C(=O)c2cc([N+](=O)[O-])ccc2N2CCN(C)CC2)cc1,3.74 µM
10,O=C(Nc1ccccc1)c1nc[nH]c1C(=O)Nc1ccccc1F,28.3 µM
11,COc1ccc2cc(CN(CC3CCCO3)C(=S)Nc3ccccc3)c(=O)[nH]c2c1 (stereo not given),> 50 µM
12,COc1cc(OC)c2c(-c3cccc(-c4sccc4C(C)=O)c3)cc(=O)oc2c1,12.2 µM
13,COC(=O)C1CC23C=CCN4CCC5(c6ccccc6NC15C2C)C43 (stereo not given),4.17 µM
14,CCN1CCCC(OC(=O)c2cc(-c3ccccc3Cl)nc3ccccc23)C1 (stereo not given),43.9 µM
15,COc1cccc2c1C(=O)c1c(O)c3c(c(O)c1C2=O)C[C@](O)(C(C)=O)C[C@H]3O[C@@H]1C[C@@H](N)[C@@H](O)[C@@H](C)O1,7.44 µM
16,O=S(=O)(Cc1ccc(Cl)cc1Cl)c1ccc(Cl)cc1,2.72 µM
17,CCN1/C(=C\c2ccc3cc(C)ccc3[n+]2CC)Sc2cc(C)c(C)cc21,9.9 µM
18,CCOc1ccc(-c2cc(C(=O)N/N=C/c3ccc(O)cc3)c3ccccc3n2)cc1,16 µM
19,Cc1ccc(S(=O)(=O)NCc2ccccc2)cc1C(=O)N1CC(C)CC(C)C1 (stereo not given),> 50 µM
20,C=C1SC(Nc2c(C)cc(C)cc2C)=NC12CCCCC2,5.37 µM
21,O=C(Cc1ccc(Br)cc1)NCc1ccccc1,4.85 µM
22,CCN(CC)CCCNc1ccc2ncn3c4ccc(O)cc4c(=O)c1c23,1.8 µM
23,O=C(Nc1cccc(C2=NCCN2)c1)Nc1cccc(C2=NCCN2)c1,20.7 µM
